Patent US20090233943A9, “NEW COMPOUNDS 835” (priority 2007, published 2009)
Counter-ions that a name gives are not always drawn.

Biological target: T1, human β-Secretase (soluble part, AA 1-AA 460, sBACE-Fc) (Homo sapiens, UniProt P56817)
T1 construct: The soluble part of the human β-Secretase (AA 1-AA 460) was cloned; made in house
Assay: TR-FRET assay (β-secretase enzyme)
Format: biochemical
Experimental: The enzyme used in the IGEN Cleavage-, Fluorescent-, TR-FRET- and BiaCore assays is described as follows:
The soluble part of the human β-Secretase (AA 1-AA 460) was cloned into the ASP2-Fc10-1-IRES-GFP-neoK mammalian expression vector. The gene was fused to the Fc domain of IgG1 (affinity tag) and stably cloned into SEEK 293 cells. Purified sBACE-Fc is stored in Tris buffer, pH 9.2 and has a purity of 95%.
Enzyme was diluted to 6 μg/mL and the substrate (Europium)[…](Qsy7) to 200 nM in reaction buffer (NaAcetate, chaps, triton x-100, EDTA pH 4.5). Compounds were diluted to the desired concentration in dimethyl sulfoxide (final dimethyl sulfoxide concentration in assay is 5%). […] Enzyme (9 μL) and 1 μL of compound in dimethyl sulfoxide was added to the plate, mixed and pre-incubated for 10 min. Substrate (10 μL) was added and the reaction proceeded in the dark for 15 min at RT. The reaction was stopped with the addition of 7 μL NaAcetate, pH 9. The fluorescence of the product was measured on a Victor II plate reader with an excitation wavelength of 340 nm and an emission wavelength of 615 nm. […] The dimethyl sulfoxide control defined the 100% activity level and 0% activity was defined by exclusion of the enzyme (using reaction buffer instead).

T1 sequence (P56817 22-460): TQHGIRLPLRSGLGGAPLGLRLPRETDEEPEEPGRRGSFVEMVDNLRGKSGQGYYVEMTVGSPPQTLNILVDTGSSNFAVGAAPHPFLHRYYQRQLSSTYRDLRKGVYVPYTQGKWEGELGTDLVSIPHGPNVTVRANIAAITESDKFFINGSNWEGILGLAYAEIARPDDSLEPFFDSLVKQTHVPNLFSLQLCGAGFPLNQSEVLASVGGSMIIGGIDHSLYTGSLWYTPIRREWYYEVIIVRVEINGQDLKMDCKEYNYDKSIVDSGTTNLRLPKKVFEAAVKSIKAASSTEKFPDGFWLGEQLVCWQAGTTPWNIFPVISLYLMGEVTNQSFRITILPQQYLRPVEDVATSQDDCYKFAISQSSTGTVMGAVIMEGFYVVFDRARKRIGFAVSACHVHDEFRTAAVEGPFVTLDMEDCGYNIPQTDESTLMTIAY

SMILES | IC50 [nM]
COc1cncc(-c2cc(C3(c4ccc(S(F)(F)(F)(F)F)cc4)N=C(N)N(C)C3=O)ccc2F)c1 (single isomer, unassigned) [26 isomer 2] | 465
CN1C(=O)C(c2ccc(S(F)(F)(F)(F)F)cc2)(c2cccc(-c3cncc(F)c3)c2)N=C1N (centres unmarked) [Example 35, 2-amino-5-[3-(5-fluoropyridin-3-yl)phenyl]-3-methyl-5-[4-(pentafluoro-λ^6 sulfanyl)phenyl]-3,5-dihydro-4H-imidazol-4-one] | 68
CN1C(=O)C(c2ccc(S(F)(F)(F)(F)F)cc2)(c2ccc(F)c(-c3cncc(C#N)c3)c2)N=C1N (centres unmarked) [Example 23, 5-(5-{2-Amino-1-methyl-5-oxo-4-[4-(pentafluoro-A-sulfanyl)phenyl]-4,5-dihydro-1H-imidazol-4-yl}-2-fluorophenyl)nicotinonitrile 0.25 acetate] | 101
CN1C(=O)C(c2cccc(S(F)(F)(F)(F)F)c2)(c2ccc(F)c(-c3cccnc3)c2)N=C1N (centres unmarked) [Example 50, 2-Amino-5-(4-fluoro-3-pyridin-3-ylphenyl)-3-methyl-5-[3-(pentafluoro-λ^6-sulfanyl)phenyl]-3,5-dihydro-4H-imidazol-4-one] | 317
CN1C(=O)C(c2ccc(S(F)(F)(F)(F)F)cc2)(c2cccc(-c3cnccn3)c2)N=C1N (centres unmarked) [Example 36, 2-amino-3-methyl-5-[4-(pentafluoro-λ^6-sulfanyl)phenyl]-5-(3-pyrazin-2-ylphenyl)-3,5-dihydro-4H-imidazol-4-one] | 56
CN1C(=O)C(c2ccc(S(F)(F)(F)(F)F)cc2)(c2ccc(F)c(-c3cccnc3)c2)N=C1N (centres unmarked) [Example 24, 2-Amino-5-(4-fluoro-3-pyridin-3-ylphenyl)-3-methyl-5-[4-(pentafluoro-λ^6-sulfanyl)phenyl]-3,5-dihydro-4H-imidazol-4-one] | 53
CN1C(=O)C(c2ccc(S(F)(F)(F)(F)F)cc2)(c2cccc(-c3cscn3)c2)N=C1N (centres unmarked) [Example 43, 2-amino-3-methyl-5-[4-(pentafluoro-λ^6-sulfanyl)phenyl]-5-[3-(1,3-thiazol-4-yl)phenyl]-3,5-dihydro-4H-imidazol-4-one] | 673
CN1C(=O)C(c2ccc(S(F)(F)(F)(F)F)cc2)(c2cccc(-c3cc(C#N)ccc3F)c2)N=C1N (centres unmarked) [Example 39, 2-amino-5-(2′-fluoro-5′-carbonitrilebiphenyl-3-yl)-3-methyl-5-[4-(pentafluoro-λ^6-sulfanyl)phenyl]-3,5-dihydro-4H-imidazol-4-one] | 356
CN1C(=O)C(c2ccc(S(F)(F)(F)(F)F)cc2)(c2cccc(-c3cccc(Cl)c3F)c2)N=C1N (centres unmarked) [Example 46, 2-amino-5-(3′-chloro-2′-fluorobiphenyl-3-yl)-3-methyl-5-[4-(pentafluoro-λ^6-sulfanyl)phenyl]-3,5-dihydro-4H-imidazol-4-one] | 694
CN1C(=O)C(c2ccc(S(F)(F)(F)(F)F)cc2)(c2cccc(-c3cncnc3)c2)N=C1N (centres unmarked) [Example 32, 2-amino-3-methyl-5-[4-(pentafluoro-λ^6-sulfanyl)phenyl]-5-(3-pyrimidin-5-ylphenyl)-3,5-dihydro-4H-imidazol-4-one] | 55
COc1cccc(-c2cccc(C3(c4ccc(S(F)(F)(F)(F)F)cc4)N=C(N)N(C)C3=O)c2)c1 (centres unmarked) [Example 40, 2-amino-5-(3′-methoxybiphenyl-3-yl)-3-methyl-5-[4-(pentafluoro-λ^6-sulfanyl)phenyl]-3,5-dihydro-4H-imidazol-4-one] | 81
CN1C(=O)C(c2ccc(S(F)(F)(F)(F)F)cc2)(c2cccc(-c3cncc(C#N)c3)c2)N=C1N (centres unmarked) [Example 45, 5-(3-{2-amino-1-methyl-5-oxo-4-[4-(pentafluoro-λ^6-sulfanyl)phenyl]-4,5-dihydro-1H-imidazol-4-yl}phenyl)pyridine-3-carbonitrile] | 59
CN1C(=O)C(c2ccc(S(F)(F)(F)(F)F)cc2)(c2ccc(F)c(-c3cccnc3F)c2)N=C1N (centres unmarked) [Example 28, 2-amino-5-[4-fluoro-3-(2-fluoropyridin-3-yl)phenyl]-3-methyl-5-[4-(pentafluoro-λ^6-sulfanyl)phenyl]-3,5-dihydro-4H-imidazol-4-one 0.25 acetate] | 69
CN1C(=O)C(c2ccc(S(F)(F)(F)(F)F)cc2)(c2cccc(-c3cc(C#N)ccn3)c2)N=C1N (centres unmarked) [Example 42, 2-(3-{2-amino-1-methyl-5-oxo-4-[4-(pentafluoro-λ^6-sulfanyl)phenyl]-4,5-dihydro-1H-imidazol-4-yl}phenyl)pyridine-4-carbonitrile] | 405
CN1C(=O)C(c2cccc(S(F)(F)(F)(F)F)c2)(c2ccc(F)c(-c3cncc(C#N)c3)c2)N=C1N (centres unmarked) [Example 49, 5-(5-{2-Amino-1-methyl-5-oxo-4-[3-(pentafluoro-λ^6-sulfanyl)phenyl]-4,5-dihydro-1H-imidazol-4-yl}-2-fluorophenyl)nicotinonitrile 0.25 acetate] | 1140
CN1C(=O)C(c2cccc(S(F)(F)(F)(F)F)c2)(c2ccc(F)c(-c3cncnc3)c2)N=C1N (centres unmarked) [Example 48, 2-Amino-5-(4-fluoro-3-pyrimidin-5-ylphenyl)-3-methyl-5-[3-(pentafluoro-λ^6-sulfanyl)phenyl]-3,5-dihydro-4H-imidazol-4-one 0.25 acetate] | 487
COc1cccc(-c2cc(C3(c4ccc(N=S(C)(C)=O)cc4)N=C(N)N(C)C3=O)ccc2F)c1 (centres unmarked) [Example 5, 2-Amino-5-(4-{[dimethyl(oxido)-λ^4-sulfanylidene]amino}phenyl)-5-(6-fluoro-3′-methoxybiphenyl-3-yl)-3-methyl-3,5-dihydro-4H-imidazol-4-one hydrochloride] | 756
CN1C(=O)C(c2ccc(S(F)(F)(F)(F)F)cc2)(c2ccc(F)c(-c3cncc(F)c3)c2)N=C1N (centres unmarked) [Example 27, 2-Amino-5-[4-fluoro-3-(5-fluoropyridin-3-yl)phenyl]-3-methyl-5-[4-(pentafluoro-λ^6-sulfanyl)phenyl]-3,5-dihydro-4H-imidazol-4-one 0.25 acetate] | 81
CN1C(=O)C(c2ccc(S(F)(F)(F)(F)F)cc2)(c2cccc(-c3cccnc3F)c2)N=C1N (centres unmarked) [Example 31, 2-amino-5-[3-(2-fluoropyridin-3-yl)phenyl]-3-methyl-5-[4-(pentafluoro-λ^6-sulfanyl)phenyl]-3,5-dihydro-4H-imidazol-4-one] | 83
COc1cccc(-c2cccc(C3(c4ccc(S(F)(F)(F)(F)F)cc4)N=C(N)N(C)C3=O)c2)c1F (single isomer, unassigned) [37 isomer 1] | 49
CN1C(=O)C(c2ccc(S(F)(F)(F)(F)F)cc2)(c2cccc(-c3cccnc3)c2)N=C1N (centres unmarked) [Example 33, 2-amino-3-methyl-5-[4-(pentafluoro-λ^6-sulfanyl)phenyl]-5-(3-pyridin-3-ylphenyl)-3,5-dihydro-4H-imidazol-4-one] | 52
CN1C(=O)C(c2ccc(S(F)(F)(F)(F)F)cc2)(c2ccc(F)c(-c3cncnc3)c2)N=C1N (centres unmarked) [Example 22, 2-Amino-5-(4-fluoro-3-pyrimidin-5-ylphenyl)-3-methyl-5-[4-(pentafluoro-λ^6-sulfanyl)phenyl]-3,5-dihydro-4H-imidazol-4-one] | 49
COc1cncc(-c2cc(C3(c4ccc(S(F)(F)(F)(F)F)cc4)N=C(N)N(C)C3=O)ccc2F)c1 (single isomer, unassigned) [26 isomer 1] | 13
COc1cncc(-c2cc(C3(c4ccc(S(F)(F)(F)(F)F)cc4)N=C(N)N(C)C3=O)ccc2F)c1 (centres unmarked) [Example 25, 2-Amino-5-[4-fluoro-3-(5-methoxypyridin-3-yl)phenyl]-3-methyl-5-[4-(pentafluoro-λ^6-sulfanyl)phenyl]-3,5-dihydro-4H-imidazol-4-one] | 30
COc1ccc(F)c(-c2cccc(C3(c4ccc(S(F)(F)(F)(F)F)cc4)N=C(N)N(C)C3=O)c2)c1F (centres unmarked) [Example 47, 2-amino-5-(2′,6′-difluoro-3′-methoxybiphenyl-3-yl)-3-methyl-5-[4-(pentafluoro-λ^6-sulfanyl)phenyl]-3,5-dihydro-4H-imidazol-4-one] | 38
CN1C(=O)C(c2ccc(S(F)(F)(F)(F)F)cc2)(c2cccc(-c3cn(C)cn3)c2)N=C1N (centres unmarked) [Example 44, 2-amino-3-methyl-5-[3-(1-methyl-1H-imidazol-4-yl)phenyl]-5-[4-(pentafluoro-λ^6-sulfanyl)phenyl]-3,5-dihydro-4H-imidazol-4-one] | 643
CN1C(=O)C(c2ccc(S(F)(F)(F)(F)F)cc2)(c2ccc(F)c(-c3cnccc3C#N)c2)N=C1N (centres unmarked) [Example 29, 3-(5-{2-amino-1-methyl-5-oxo-4-[4-(pentafluoro-λ^6-sulfanyl)phenyl]-4,5-dihydro-1H-imidazol-4-yl}-2-fluorophenyl)isonicotinonitrile 0.25 acetate] | 81
COc1ccc(F)c(-c2cccc(C3(c4ccc(S(F)(F)(F)(F)F)cc4)N=C(N)N(C)C3=O)c2)c1 (centres unmarked) [Example 38, 2-amino-5-(2′-fluoro-5′-methoxybiphenyl-3-yl)-3-methyl-5-[4-(pentafluoro-λ^6 sulfanyl)phenyl]-3,5-dihydro-4H-imidazol-4-one] | 71
CN1C(=O)C(c2cccc(S(F)(F)(F)(F)F)c2)(c2ccc(F)c(-c3cncc(F)c3)c2)N=C1N (centres unmarked) [Example 52, 2-Amino-5-[4-fluoro-3-(5-fluoropyridin-3-yl)phenyl]-3-methyl-5-[3-(pentafluoro-λ^6-sulfanyl)phenyl]-3,5-dihydro-4H-imidazol-4-one] | 1190
